Reference: a melting point compilation (Tetko et al.; mined from patent text by program, amines drawn as free bases though some values may be those of a salt)

melting point [°C]	Structure (SMILES)
108 to 109	COc1ccc(C(=O)NCCc2cccc(C)c2)cc1OC
228 to 229	COc1c(Cl)ccc2c1C(O)(c1ccccc1Cl)C(=O)N2 (centres undefined)
155 to 158	CC(C)Cc1ccc(C2(C)Oc3ccc(C(=O)c4c[nH]c5ccccc45)cc3O2)cc1 (single isomer, unassigned; (-))
50	CCCCCCCNC(=O)Oc1ccc2c(c1)N(Cc1ccccc1)CCC2
73 to 74	CCOC(=O)C(Cc1ccc(Cl)c(OC(F)(F)C(F)F)c1)C(=O)c1ccc(F)cc1 (centres undefined)
152 to 154	CCOC(=O)COc1ccc2c(=O)c3c(oc2c1)C(=Cc1ccccc1)CC3
147	CN(CCOc1ccc(C(N)=O)cc1)CCc1ccc(NS(C)(=O)=O)cc1
175 to 177	COc1ccc(Cc2cnc(N)nc2N)cc1OCCCSc1ccc(NC(C)=O)cc1
160	CC(=O)OC1C(Oc2cc(C)cc(O)c2C(=O)CCc2ccc3occc3c2)OC(CO)C(O)C1O (centres undefined)
199 to 201	CCCc1cc(C(=O)NCCC(=O)O)ccc1OC(C(=O)NS(=O)(=O)c1ccc(C(C)C)cc1)c1ccc2c(c1)OCO2 (centres undefined)
> 260	O=C(O)c1ccc(-c2ccc(Cl)cc2)nc1
> 260	Nc1ccc(O)c(C(=O)Nc2cccc3[nH]ccc23)c1
121	CCOC(=O)N=c1ccc(C)cn1Cc1cccc(C(F)(F)F)c1
170 to 172	O=C(O)Cc1nn(C/C=C/c2cccc(C(F)(F)F)c2F)c(=O)c2ccccc12
211 to 212	CCCn1nc2c(N)nc3ccccc3c2c1CCNC(=O)Nc1ccc(F)c(F)c1
72 to 73.5	C=C(C)OC(=O)c1ccc(C(=O)OC(=C)C)cc1
114 to 116	CCOC(=O)C(=O)Nc1cc(C#N)cc([N+](=O)[O-])c1

Continued, compound first:

Structure (SMILES)	melting point [°C]
CC(C)(C)OC(=O)N1C[C@H](Oc2nccc(NC(=O)c3ccccc3)n2)C[C@@H]1C(=O)OC(c1ccccc1)c1ccccc1	145 to 147
O=C(O)[C@H](Cc1ccc(O)cc1)NC(=O)C1(NC(=O)C2(S)CCCC2)CCCC1	90
COc1ccc2cc(I)ccc2c1	142 to 143
C[C@@H]1S[C@@H](C(=O)N(C)c2ccc(CN3CCOCC3)cc2)Cc2cc3c(cc2C1=O)OCO3	162 to 165
COc1cccc(N2C(=O)C3(CCCCO3)C(=O)c3cccnc32)c1 (centres undefined)	233 to 236
Oc1cccc(-c2ccc3cc(O)ccc3c2)c1	192 to 194
Cc1nc(-c2cn(-c3cc(C(F)(F)F)cc(-c4ccc(C(F)(F)F)cc4)n3)cn2)sc1S(=O)(=O)NC(C)(C)C	> 250
COC(=O)c1cc2c([N+](=O)[O-])csc2nc1C1=NC(C)(C(C)C)C(=O)N1 (centres undefined)	201 to 202
O=[N+]([O-])c1cn(CC(I)=C(I)I)c(Cl)c1Cl	126 to 127
Cn1ncc2c1C(=O)C(Cl)=C(NC1CC1)C2=O	175 to 176
ON=C1CCOc2ccccc21	114 to 117
CCOC(OCC)c1cn2cccc(CO)c2n1	87 to 89
CC(C)(C)OC(=O)N1CCN(C(=O)c2cc3ccccc3[nH]2)CC1	213 to 214
OCCNc1cc(Nc2ccc(Nc3ccccc3)cc2)ncn1	154 to 155
COC(=O)c1cc(N2C(=O)CCC2=O)c(Cl)c(S(N)(=O)=O)c1	195 to 196
O=C1C(=O)c2ccccc2C2=C1SCC1(CCN(C(=O)c3ccncc3)CC1)O2	267 to 269

Structure (SMILES)	melting point [°C]
CCOCc1nc2c(N)nc3cc(N4CCCCC4)ccc3c2n1CCCOC(C)C	182 to 184
Cc1cc(-c2ccccc2)n2ncc(C(=O)c3ccccc3)c2n1	165 to 166
COc1ccc(Cc2n[nH]c3c2c(=O)n(-c2ccccc2)c2ncccc32)cc1	300 to 302
COc1ccccc1N1CCN(CCn2c(=O)c3sccc3n(CCC(=O)O)c2=O)CC1	215 to 216
CC(CO)n1cnc2cnc3ccccc3c21 (centres undefined)	170 to 174
Cc1oc(-c2ccccc2)nc1COc1ccc(COc2nn(Cc3ccc(OCc4nc(-c5ccccc5)oc4C)cc3)cc2CO)cc1	157 to 158
CNC(=O)NC1CCCCC1	135 to 136
COc1ccc(SCCCC(=O)O)cc1OC	78
CC(=NO)C1=CCN(C)CC1	166 to 168
COc1ccc(-c2cc(N)n[nH]2)cc1OC	124 to 125
CCCOc1nc2sc(Cl)cc2c(=NC(=O)OC)n1CCC	65 to 67
CC(=O)c1cc(C(C)=O)cc(S(N)(=O)=O)c1	179 to 181
O=[N+]([O-])c1ccc(Cn2c(-c3ccc4c(c3)OCO4)nc3ccccc32)cc1	172 to 174
Cc1nccn1CC(C)C(=O)c1cn(C)c2ccccc12 (centres undefined)	205 to 207
COc1ccc(-c2ccc3nnn(Cc4ccc5ncccc5c4)c3n2)cc1OC	149 to 152
CCc1nc2c(C)c(NS(C)(=O)=O)cnc2n1-c1ccc(CCNC(=O)NS(=O)(=O)c2ccc(C)cc2)cc1	166
